# Experimental data published in PubChem BioAssay AID1552 (Sanford-Burnham Center for Chemical Genomics, 2009).
# Active and inactive are the calls of the source. The rule behind the calls is not given here.
# Molecular target: Ubiquitin-conjugating enzyme E2 N (Homo sapiens) (UniProt P61088)
# Assay: NMR detection of UBE2N ligand binding – biophysical, purified protein (AID 1552)
# Settings: NMR binding to purified UBE2N
# Sequence of Ubiquitin-conjugating enzyme E2 N (Homo sapiens) (P61088 whole entry, looked up): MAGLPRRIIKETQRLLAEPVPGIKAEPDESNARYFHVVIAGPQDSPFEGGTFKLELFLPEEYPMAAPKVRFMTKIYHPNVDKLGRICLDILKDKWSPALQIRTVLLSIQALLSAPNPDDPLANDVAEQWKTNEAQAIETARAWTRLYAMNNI
row,SMILES,Kd
1,CC(C)CCCC(C)[C@H]1CCC2C3CC=C4CC(=O)CC[C@]4(C)C3CC[C@@]21C (some centres undefined),> 4 mM (inactive)
2,COc1ccc(N=C2NC(=O)CS2)cc1,> 4 mM (inactive)
3,Cc1cc(NC(=O)c2ccccc2C(=O)O)no1,> 4 mM (inactive)
4,CC(C)(C)c1cc(CN)c(C(=O)O)o1,> 4 mM (inactive)
5,O=C(/C=C/C=C/c1ccc2c(c1)OCO2)N1CCCCC1,> 4 mM (inactive)
6,c1ccc(-n2cnnc2)nc1,> 4 mM (inactive)
7,CC(=O)CNc1cc(CNC(C)=O)c(C)cc1C,> 4 mM (inactive)
8,CC1(C)O[C@H]2[C@H](O)C[C@](O)(C(N)=O)C[C@H]2O1,> 4 mM (inactive)
9,NC1=C(c2ccccc2)C(=O)c2ccccc21,> 4 mM (inactive)
10,Cc1ccc(OCC(=O)n2cnnc2N)c(C)c1,> 4 mM (inactive)
11,Cc1cc(NC(=O)CS(=O)(=O)c2ccccc2)no1,> 4 mM (inactive)
12,CCCNC(=O)c1cnc2n(c1=O)CCS2,> 4 mM (inactive)
13,CC(=O)OCC(=O)[C@@]1(O)CCC2C3CC[C@@H]4C[C@H](O)CC[C@]4(C)C3C(=O)C[C@@]21C (some centres undefined),> 4 mM (inactive)
14,CC(C)c1ccc2c(c1)CCC1[C@](C)(CN)CCC[C@]21C (some centres undefined),> 4 mM (inactive)
15,CC(=O)Nc1cccc(-c2nc3ccccc3c(=O)o2)c1,> 4 mM (inactive)
16,O=C1CC(NCc2ccco2)C(=O)NN1 (centres undefined),> 4 mM (inactive)
17,CN1C(=O)/C(=C/c2ccc(O)cc2O)SC1=S,> 4 mM (inactive)
18,CC(C)(C)CC(=O)NC1=NCCS1,> 4 mM (inactive)
19,CC(=O)NC(NC(C)=O)c1ccccc1,> 4 mM (inactive)
20,CCOC(=O)c1cnc2sccn2c1=O,> 4 mM (inactive)
21,COCC(=O)/C=C1\Sc2ccccc2N1C,> 4 mM (inactive)
22,O=C(c1ccc(Cl)s1)N1CCOCC1,> 4 mM (inactive)
23,OCC12COC3c4ccccc4C(OC1)N32 (centres undefined),> 4 mM (inactive)
24,Cc1nn(-c2ccccc2C(=O)O)c(=O)c2ccccc12,> 4 mM (inactive)

row,SMILES,Kd
1,COc1ccc2c(c1OC)OC[C@@H](c1ccc(OC)c(OC)c1OC)C2,> 4 mM (inactive)
2,O=c1c[n+]([O-])c2ccccc2n1OCc1ccccc1,> 4 mM (inactive)
3,OCC1CCCCCN1 (centres undefined),> 4 mM (inactive)
4,O=C(O)CC1C(=O)NCCN1Cc1cccs1 (centres undefined),> 4 mM (inactive)
5,Cc1ccc2[nH]cc(CCN)c2c1,> 4 mM (inactive)
6,Oc1cc(O)c2c(c1)O[C@H](c1ccc(O)c(O)c1)[C@@H](O)C2,> 4 mM (inactive)
7,Cn1nnc2cc(C(=O)NCc3ccco3)ccc21,> 4 mM (inactive)
8,O=c1nc(N2CCOCC2)nc2n1CCO2,> 4 mM (inactive)
9,Cc1ccc(-c2nc(-c3cccnc3)no2)cc1,> 4 mM (inactive)
10,Cc1cc(=O)n2nc(-c3ccccc3)sc2n1,> 4 mM (inactive)
11,COc1ccc(-c2cc(=O)c3c(OC(C)=O)cc(OC(C)=O)cc3o2)cc1,> 4 mM (inactive)
12,O=C(Nc1cccc(C(F)(F)F)c1)c1cccnc1,> 4 mM (inactive)
13,CCOc1cc(S(=O)(=O)n2nc(C)cc2C)ccc1F,> 4 mM (inactive)
14,CCC(C)C(=O)OC1[C@@H]2CC3=C4CC(=O)O[C@@H](c5ccoc5)[C@]4(C)CCC3C(C)(C2=O)[C@@H](CC(=O)OC)C1(C)C (some centres undefined),> 4 mM (inactive)
15,CCC(CO)NC(=O)c1snnc1C (centres undefined),> 4 mM (inactive)
16,Cc1ccc(CNc2ccc(O)cc2)cc1,> 4 mM (inactive)
17,O=C(O)CCC(=O)c1c[nH]c2ccccc12,> 4 mM (inactive)
18,O=C1CCC(C(=O)NCc2cccnc2)N1 (centres undefined),> 4 mM (inactive)
19,c1ccc2c(c1)[nH]c1cnccc12,> 4 mM (inactive)
20,O=P1(O)c2ccccc2Nc2ccccc21,> 4 mM (inactive)
21,O=C(Nn1cnnc1)c1ccccc1Cl,> 4 mM (inactive)
22,CC1=C/C(=C\c2c(O)[nH]c(=O)[nH]c2=O)C(C)=N1,> 4 mM (inactive)
23,Cc1cc(O)c(C)c(O)c1C(=O)O,> 4 mM (inactive)
24,O=C(O)C(Cc1cnc[nH]1)N1C(=O)c2ccccc2C1=O (centres undefined),> 4 mM (inactive)

row,SMILES,Kd
1,COC(=O)c1c(C)c2c(c(C)c1O)OC(=O)c1c(C)c(Cl)c(O)c(Cl)c1O2,> 4 mM (inactive)
2,CNC(=O)n1ccc(C(=O)N2CCCCC2)n1,> 4 mM (inactive)
3,CCC(=O)NC(=S)Nc1ccc(C(N)=O)cc1,> 4 mM (inactive)
4,O=c1[nH]cc(NCc2ccccc2)c(=O)[nH]1,> 4 mM (inactive)
5,O=C(O)CNc1ncnc2nc[nH]c12,> 4 mM (inactive)
6,C[C@@H](N)[C@@H](O)c1ccccc1,> 4 mM (inactive)
7,CC(=O)Nc1ccc(NC(=O)C2CC2)cc1,> 4 mM (inactive)
8,COC(=O)Cn1c2ccccc2c2nc(C)sc21,> 4 mM (inactive)
9,CSc1nc(NC(C)C)nc(N2CCOCC2)n1,> 4 mM (inactive)
10,O=C(Nc1ccc(Cl)cc1)N1CCCC1,> 4 mM (inactive)
11,CN1CCC[C@H]1c1cccnc1,> 4 mM (inactive)
12,COc1c(-c2coc3cc4c(cc3c2=O)CC(OC(C)=O)C(C)(C)O4)ccc2c1C=CC(C)(C)O2 (centres undefined),> 4 mM (inactive)
13,CC(C)=CCc1c2c(c(O)c3c(=O)c(O)c(-c4ccccc4)oc13)C=CC(C)(C)O2,> 4 mM (inactive)
14,O=C(O)CCNc1n[nH]c(=O)[nH]c1=O,> 4 mM (inactive)
15,COC1=C(OC)C(=O)C(C/C=C(\C)CC/C=C(\C)CC/C=C(\C)CC/C=C(/C)CC/C=C(\C)CC/C=C(\C)CC/C=C(\C)CC/C=C(\C)CC/C=C(\C)CCC=C(C)C)=C(C)C1=O,> 4 mM (inactive)
16,CN(C)c1oc(-c2ccccc2Cl)nc1C#N,> 4 mM (inactive)
17,O=C(O)CCC(=O)Nc1ccccc1F,> 4 mM (inactive)
18,COc1ccc(Cl)cc1NC(=O)C(N)=O,> 4 mM (inactive)
19,COc1ccc2c(c1)O[C@H]1c3ccc(OC)cc3OC[C@@H]21,> 4 mM (inactive)
20,OC1CCCN(Cc2ccccc2)C1 (centres undefined),> 4 mM (inactive)
21,OC1CC2CCC1C2 (centres undefined),> 4 mM (inactive)
22,OCCNC(=S)Nc1ccccc1,> 4 mM (inactive)
23,COc1ccc(-c2cn[nH]c2N)c(OC)c1,> 4 mM (inactive)
24,O=c1ccc(=O)n(CN2CCc3ccccc3C2)[nH]1,> 4 mM (inactive)

row,SMILES,Kd
1,O=C(c1ccccc1)c1ccc(N2CCNCC2)cc1,> 4 mM (inactive)
2,Cc1ccc(C)n1CCN1CCNCC1,> 4 mM (inactive)
3,Cc1ccc(-c2nn3c(C)nnc3s2)cc1N,> 4 mM (inactive)
4,COc1ccc2c(c1)[n+](=O)c(C(C)=O)c(C)n2[O-],> 4 mM (inactive)
5,C=C1CSc2nc(=O)c3c(C)c(C)sc3n21,> 4 mM (inactive)
6,Cc1ccccc1N1CCN(C(=O)C2CCCCC2)CC1,> 4 mM (inactive)
7,NC(=O)CSc1nnc(-c2ccncc2)o1,> 4 mM (inactive)
8,O=S1(=O)CCC(NCc2ccccc2)C1 (centres undefined),> 4 mM (inactive)
9,O=C(NCc1ccco1)c1cccc(F)c1,> 4 mM (inactive)
10,COC(=O)c1ccccc1N(C)S(C)(=O)=O,> 4 mM (inactive)
11,Oc1ccccc1-c1cc(C(F)(F)F)[nH]n1,> 4 mM (inactive)
12,Nc1cc(C(=O)O)ccc1N1CCCCCC1,> 4 mM (inactive)
13,Cc1cc(O)cc(=O)o1,> 4 mM (inactive)
14,O=C(Nc1ccccc1C(F)(F)F)c1cnccn1,> 4 mM (inactive)
15,CCc1nnc(NC(C)=O)s1,> 4 mM (inactive)
16,O=c1oc2ccccc2cc1O,> 4 mM (inactive)
17,O=C(O)/C=C/c1ccc(O)c(O)c1,> 4 mM (inactive)
18,N#CCN1C(=O)c2ccccc2S1(=O)=O,> 4 mM (inactive)
19,NC(=O)Cn1nc2c3c(cccc3c1=O)-c1ccccc1-2,> 4 mM (inactive)
20,CCOC(=O)c1snnc1-c1ccccc1,> 4 mM (inactive)
21,CCOC(=O)N1CCN(c2ncnc3c2cnn3C)CC1,> 4 mM (inactive)
22,O=C1CCC(C(=O)NCc2ccc(Cl)cc2)N1 (centres undefined),> 4 mM (inactive)
23,CC1(C)CCC(C)(C)c2cc(C(=O)O)ccc21,> 4 mM (inactive)
24,c1ccc(-c2csc3ncn4nnnc4c23)cc1,> 4 mM (inactive)

row,SMILES,Kd
1,CCNC(CC(=O)Nc1ccc(F)cc1)C(=O)O (centres undefined),> 4 mM (inactive)
2,COc1c2c(cc3c1OCO3)CCN(C)C2,> 4 mM (inactive)
3,CN(C)C(=O)C12CCC(C)(C(=O)O1)C2(C)C (centres undefined),> 4 mM (inactive)
4,Nc1ccc2c(c1)CCCC2=O,> 4 mM (inactive)
5,COc1ccc2c(c1)OC/C(=C/c1ccc(O)c(O)c1)C2=O,> 4 mM (inactive)
6,COc1ccccc1C(=O)NC1CCN(C)CC1,> 4 mM (inactive)
7,CC(=O)CC(=O)N1C(O)CC[N+]1(C)C (centres undefined),> 4 mM (inactive)
8,CN(C)c1nc(N)nc(-c2nc3ccccc3s2)n1,> 4 mM (inactive)
9,Cc1nnc(C)n1/N=C/c1cccs1,> 4 mM (inactive)
10,CSc1ccccc1C(=O)N1CCOCC1,> 4 mM (inactive)
11,CN1CCN(C(=O)c2ccccc2C(=O)O)CC1,> 4 mM (inactive)
12,Cc1ccc(CCC(N)=O)o1,> 4 mM (inactive)
13,Cc1cc(C)n2nc(SCC(=O)c3ccccc3)nc2n1,> 4 mM (inactive)
14,O=C1CCC(=O)N1c1ccc(O)cc1,> 4 mM (inactive)
15,CS(C)=C1C(=O)NC(=O)N(c2ccccc2)C1=O,> 4 mM (inactive)
16,CC[C@@]1(O)C[C@H](O[C@H]2C[C@H](N(C)C)[C@H](O)[C@H](C)O2)c2c(cc3c(c2O)C(=O)c2c(O)cccc2C3=O)[C@H]1C(=O)OC,> 4 mM (inactive)
17,C=CCn1c(N)c(C(=O)N2CCOCC2)sc1=S,> 4 mM (inactive)
18,O=C(Nn1c(=S)[nH]c2ccccc2c1=O)c1ccncc1,> 4 mM (inactive)
19,O=C(c1ccncc1)c1ccc(Br)cc1,> 4 mM (inactive)
20,NC(=O)CN1CCC(c2nc3ccccc3[nH]2)CC1,> 4 mM (inactive)
21,Cn1c(SCCC(=O)O)nnc1-c1cccnc1,> 4 mM (inactive)
22,N#Cc1c[nH]n2c(=O)cc(Cc3ccccc3)nc12,> 4 mM (inactive)
23,CC(C)(C)CC(=O)N1CCC(C(N)=O)CC1,> 4 mM (inactive)
